Target: T1, PTP1B (protein tyrosine phosphatase 1B) (Homo sapiens, UniProt P18031)
T1 construct: gene PTPN1
T1 sequence (P18031 1-435): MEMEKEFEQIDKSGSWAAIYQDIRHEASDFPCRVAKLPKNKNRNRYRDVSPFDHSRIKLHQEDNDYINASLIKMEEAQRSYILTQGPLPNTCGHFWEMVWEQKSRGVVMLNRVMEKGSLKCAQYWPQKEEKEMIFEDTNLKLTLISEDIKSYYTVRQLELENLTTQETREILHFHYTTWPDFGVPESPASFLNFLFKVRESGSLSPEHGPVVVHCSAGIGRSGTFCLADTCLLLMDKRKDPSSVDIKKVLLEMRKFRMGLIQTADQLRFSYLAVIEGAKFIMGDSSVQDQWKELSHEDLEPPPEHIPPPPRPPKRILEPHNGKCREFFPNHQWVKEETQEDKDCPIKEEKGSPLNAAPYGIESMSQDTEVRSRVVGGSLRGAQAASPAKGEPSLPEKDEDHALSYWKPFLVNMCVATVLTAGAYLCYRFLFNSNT
Experiment: p-NPP hydrolysis assay with recombinant human PTP1B; Lineweaver-Burk kinetics
Format: biochemical

IC50: 19.5 ± 0.76 µM
Compound: O=C(O)C[C@@H]1C(C(=O)O)=CO[C@@H](O[C@@H]2O[C@H](CO)[C@@H](O)[C@H](O)[C@H]2O)C1=CCOC(=O)/C=C/c1ccc(O)cc1 [compound 3, Symplocochinside C]
